The source of these data is patent US20220098203A1 (priority 2018, published 2022).

The target in one assay is T1, MAT2A homodimer (Homo sapiens, UniProt P31153).
T1 construct: inferred from the Ni sepharose purification and imidazole elution; made in house; host or cells: SF9 insect cells, recombinant baculovirus (Bac to Bac, pFASTBAC1)
The assay is described as follows: MAT2A biochemical assay (liberated phosphate, PiColorLock Gold). Conditions: Table 5a; MAT2A biochemical assay; read-out: Enzyme Inhibition. In outline: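 Baculovirus/Sf9-expressed, Ni-purified MAT2A homodimer preincubated with compound 60 min at 25 °C, then reacted 60 min at 25 °C with substrate mix of 500 μM ATP and 400 μM L-methionine, pH 7.0 (mix, not final levels). Phosphate released with SAM measured by PiColorLock Gold against phosphate standard curve.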

Assay [1] deals with SAM in HCT116 MTAP-deleted cells. In words: Cellular assay of target engagement (SAM), LC-MS/MS. In kind it is cell-based, human. Conditions: 72 h, read-out: Cell 72 h SAM Inhibition (MTAP −/−). An outline of the steps:
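HCT116 cells with MTAP deleted were treated with compound for 72 h at 37°C/5% CO2. After quenching lysis in cold 80% methanol with 1 M acetic acid, SAM was quantified by LC-MS/MS against a d3-SAM internal standard.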

Another assay has as its system HCT116 MTAP-/-. In words: Inhibition of cellular proliferation (Cell Titer Glo), HCT116 MTAP-/-. In kind it is cell-based, human. Conditions: 4 days, read-out: 4 Day Relative Growth Inhibition (MTAP −/−). An outline of the steps: (§1)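 Isogenic HCT116 MTAP+/+ and MTAP−/− cells were plated, treated with MAT2A inhibitor after 24 h, and incubated 4 days at 37 °C. Proliferation was read by CellTiter-Glo ATP luminescence, blank-subtracted and normalized to 0.2% DMSO control.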

The subject of the next assay is HCT116 MTAP+/+. In words: Inhibition of cellular proliferation (Cell Titer Glo), HCT116 MTAP+/+. In kind it is cell-based. Conditions: Homo sapiens, HCT-116, 96 h, Table 5a, 4 days, read-out: 4 Day Relative Growth Inhibition (MTAP +/+). In outline:
as §1
(In general: In ATP-based viability assays light output follows the ATP content of the culture.)

[2] abbreviates: Homo sapiens, HCT-116, Table 5a.
Setting [3] is: Homo sapiens, HCT-116, 96 h, Table 5a.
Setting [4] is: Table 6, select pairs of compounds.

Each structure is given as a SMILES string. Like-named read-outs stand apart in the source and are kept apart here. Some results are limits rather than exact numbers.

T1 sequence (P31153 whole entry): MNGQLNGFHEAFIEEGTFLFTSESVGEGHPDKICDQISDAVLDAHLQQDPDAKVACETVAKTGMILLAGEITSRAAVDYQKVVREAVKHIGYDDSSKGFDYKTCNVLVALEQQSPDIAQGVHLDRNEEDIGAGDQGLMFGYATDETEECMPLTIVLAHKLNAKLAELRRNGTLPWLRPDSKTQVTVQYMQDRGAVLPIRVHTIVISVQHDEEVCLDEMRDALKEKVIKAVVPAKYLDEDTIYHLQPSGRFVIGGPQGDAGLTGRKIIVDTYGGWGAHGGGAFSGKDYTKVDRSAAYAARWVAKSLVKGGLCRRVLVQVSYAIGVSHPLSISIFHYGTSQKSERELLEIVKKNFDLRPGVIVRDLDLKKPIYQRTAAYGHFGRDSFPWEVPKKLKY

Consider `COc1ccc(N2C(=O)N(c3ccc(=O)n(C)c3)Cc3cnc(NCC(F)(F)F)nc32)cc1` [Example 232, 1-(4-methoxyphenyl)-3-(1-methyl-6-oxo-1,6-dihydropyridin-3-yl)-7-((2,2,2-trifluoroethyl)amino)-3,4-dihydropyrimido[4,5-d]pyrimidin-2(1H)-one], for which the IC50 on MAT2A homodimer is 0.1 to 1 µM; in assay [1] (setting [2]), more than 1 µM; with HCT116 MTAP-/- (setting [3]) it was more than 1 µM; in the assay on HCT116 MTAP+/+, more than 1 µM.
`COc1ccc(N2C(=O)N(c3ccc4[nH]cnc4c3)Cc3cnc(NCC(F)(F)F)nc32)cc1` [Example 234, 3-(1H-benzo[d]imidazol-5-yl)-1-(4-methoxyphenyl)-7-((2,2,2-trifluoroethyl)amino)-3,4-dihydropyrimido[4,5-d]pyrimidin-2(1H)-one]: the IC50 at MAT2A homodimer is less than 0.1 µM; in assay [1] (setting [2]), 0.1 to 1 µM; in the assay with HCT116 MTAP-/- (setting [3]) it was 0.1 to 1 µM; with HCT116 MTAP+/+, more than 1 µM.
With `COc1ccc(N2Cc3cnc(NCC(F)(F)F)nc3N(c3ccc(OC(F)F)cc3)C2=O)cc1` [Example 235, 1-(4-(Difluoromethoxy)phenyl)-3-(4-methoxyphenyl)-7-(2,2,2-trifluoroethylamino)-3,4-dihydropyrimido[4,5-d]pyrimidin-2(1H)-one], the IC50 was less than 0.1 µM on MAT2A homodimer, 0.1 to 1 µM in assay [1] (setting [2]), 0.1 to 1 µM in the assay on HCT116 MTAP-/- (setting [3]) and more than 1 µM with HCT116 MTAP+/+.
In the case of `COc1ccc(N2Cc3cnc(NCC(F)(F)F)nc3N(c3ccc(Br)cc3)C2=O)cc1` [Example 236, 1-(4-bromophenyl)-3-(4-methoxyphenyl)-7-((2,2,2-trifluoroethyl)amino)-3,4-dihydropyrimido[4,5-d]pyrimidin-2(1H)-one], the IC50 was less than 0.1 µM on MAT2A homodimer, 0.1 to 1 µM in assay [1] (setting [2]), more than 1 µM in the assay on HCT116 MTAP-/- (setting [3]) and more than 1 µM with HCT116 MTAP+/+.
Consider `COc1ccc(N2C(=O)N(c3ccc4nccn4c3)Cc3cnc(NCC(F)(F)F)nc32)cc1` [Example 237], for which the IC50 was less than 0.1 µM on MAT2A homodimer, 0.1 to 1 µM in assay [1] (setting [2]), 0.1 to 1 µM in the assay on HCT116 MTAP-/- (setting [3]) and more than 1 µM in the assay with HCT116 MTAP+/+.
For the compound `COc1ccc(N2C(=O)N(c3ccc4ncccc4c3)Cc3cnc(NCC(F)(F)F)nc32)cc1` [Example 241], the IC50 on MAT2A homodimer is less than 0.1 µM; in assay [1] (setting [2]), 0.1 to 1 µM; with HCT116 MTAP-/- (setting [3]), 0.1 to 1 µM; with HCT116 MTAP+/+, more than 1 µM.
For the compound `COc1ccc(N2Cc3cnc(NCC(F)(F)F)nc3N(c3ccc(C4CC4)cc3)C2=O)cc1` [Example 242, 1-(4-cyclopropylphenyl)-3-(4-methoxyphenyl)-7-((2,2,2-trifluoroethyl)amino)-3,4-dihydropyrimido[4,5-d]pyrimidin-2(1H)-one], the IC50 is less than 0.1 µM on MAT2A homodimer, 0.1 to 1 µM in assay [1] (setting [2]), 0.1 to 1 µM in the assay with HCT116 MTAP-/- (setting [3]) and more than 1 µM with HCT116 MTAP+/+.
Turning to `COc1ccc(N2C(=O)N(c3ccc4nn(C)cc4c3)Cc3c(OC)nc(NCC(F)(F)F)nc32)cc1` [Example 246, 5-methoxy-1-(4-methoxyphenyl)-3-(2-methyl-2H-indazol-5-yl)-7-((2,2,2-trifluoroethyl)amino)-3,4-dihydropyrimido[4,5-d]pyrimidin-2(1H)-one], the IC50 was less than 0.1 µM at MAT2A homodimer, 0.1 to 1 µM in assay [1] (setting [2]), 0.1 to 1 µM in the assay with HCT116 MTAP-/- (setting [3]) and more than 1 µM in the assay with HCT116 MTAP+/+.
As for `COc1ccc(N2C(=O)N(c3ccc4nn(C)cc4c3)Cc3c(C)nc(NCC(F)(F)F)nc32)cc1` [Example 247, 1-(4-methoxyphenyl)-5-methyl-3-(2-methyl-2H-indazol-5-yl)-7-((2,2,2-trifluoroethyl)amino)-3,4-dihydropyrimido[4,5-d]pyrimidin-2(1H)-one], the IC50 is less than 0.1 µM at MAT2A homodimer, less than 0.1 µM in assay [1] (setting [2]), less than 0.1 µM in the assay with HCT116 MTAP-/- (setting [3]) and 0.1 to 1 µM in the assay on HCT116 MTAP+/+.
With `COc1ccc(N2Cc3cnc(NCC(F)(F)F)nc3N(c3ccc(C(F)(F)F)cc3)C2=O)cc1` [Example 250, 3-(4-methoxyphenyl)-7-((2,2,2-trifluoroethyl)amino)-1-(4-(trifluoromethyl)phenyl)-3,4-dihydropyrimido[4,5-d]pyrimidin-2(1H)-one], the IC50 is 0.1 to 1 µM at MAT2A homodimer, 0.1 to 1 µM in assay [1] (setting [2]), more than 1 µM with HCT116 MTAP-/- (setting [3]) and more than 1 µM in the assay on HCT116 MTAP+/+.
`COc1ccc(N2Cc3cnc(NCC(F)(F)F)nc3N(c3ccc(Cl)cc3)C2=O)cc1` [Example 252, 1-(4-chlorophenyl)-3-(4-methoxyphenyl)-7-((2,2,2-trifluoroethyl)amino)-3,4-dihydropyrimido[4,5-d]pyrimidin-2(1H)-one]: the IC50 on MAT2A homodimer is 0.1 to 1 µM; in assay [1] (setting [2]), 0.1 to 1 µM; in the assay on HCT116 MTAP-/- (setting [3]) it was more than 1 µM; with HCT116 MTAP+/+ it was more than 1 µM.
Take `COc1ccc(N2Cc3cnc(NCC(F)(F)F)nc3N(c3ccc(OC)cc3)C2=O)cc1` [Example 255, 1,3-bis(4-methoxyphenyl)-7-((2,2,2-trifluoroethyl)amino)-3,4-dihydropyrimido[4,5-d]pyrimidin-2(1H)-one]: the IC50 on MAT2A homodimer was less than 0.1 µM; in assay [1] (setting [2]), 0.1 to 1 µM; in the assay on HCT116 MTAP-/- (setting [3]), 0.1 to 1 µM; in the assay with HCT116 MTAP+/+, more than 1 µM.
For `COc1ccc(N2Cc3cnc(NCC(F)(F)F)nc3N(c3ccc(OC)nc3)C2=O)cc1` [Example 261], the IC50 was 0.1 to 1 µM on MAT2A homodimer, 0.1 to 1 µM in assay [1] (setting [2]), more than 1 µM in the assay on HCT116 MTAP-/- (setting [3]) and more than 1 µM in the assay with HCT116 MTAP+/+.
For `Cn1cc2cc(N3Cc4ccc(NCC(F)(F)F)nc4N(c4ccc(OC(F)F)cc4)C3=O)ccc2n1` [Example 264, 1-(4-(difluoromethoxy)phenyl)-3-(2-methyl-2H-indazol-5-yl)-7-((2,2,2-trifluoroethyl)amino)-3,4-dihydropyrido[2,3-d]pyrimidin-2(1H)-one], the IC50 at MAT2A homodimer is less than 0.1 µM; in assay [1] (setting [2]), less than 0.1 µM; in assay [1] (setting [4]) it was less than 0.1 µM; in the assay with HCT116 MTAP-/- (setting [3]) it was less than 0.1 µM; with HCT116 MTAP-/- (setting [4]), less than 0.1 µM; in the assay on HCT116 MTAP+/+, more than 1 µM.
As to `Cn1cc2cc(N3Cc4cnc(NCC(F)(F)F)cc4N(c4ccc(OC(F)F)cc4)C3=O)ccc2n1` [Example 268], the IC50 at MAT2A homodimer is less than 0.1 µM; in assay [1] (setting [2]), 0.1 to 1 µM; in the assay on HCT116 MTAP-/- (setting [3]), more than 1 µM; with HCT116 MTAP+/+, more than 1 µM.
With `CCNc1ccc2c(n1)N(c1ccc(OC(F)F)cc1)C(=O)N(c1ccc3nn(C)cc3c1)C2` [Example 269], the IC50 is less than 0.1 µM on MAT2A homodimer; 0.1 to 1 µM in assay [1] (setting [2]); 0.1 to 1 µM in assay [1] (setting [4]); 0.1 to 1 µM with HCT116 MTAP-/- (setting [3]); 0.1 to 1 µM in the assay with HCT116 MTAP-/- (setting [4]); more than 1 µM with HCT116 MTAP+/+.
For `Cn1cc2cc(N3Cc4ccc(OCC(F)(F)F)nc4N(c4ccc(OC(F)F)cc4)C3=O)ccc2n1` [Example 270], the IC50 was less than 0.1 µM on MAT2A homodimer, less than 0.1 µM in assay [1] (setting [2]), 0.1 to 1 µM in the assay on HCT116 MTAP-/- (setting [3]) and more than 1 µM in the assay on HCT116 MTAP+/+.
Take `Cn1cnc2ccc(N3Cc4ccc(NCC(F)(F)F)nc4N(c4ccc(OC(F)F)cc4)C3=O)cc21` [Example 271]: the IC50 (at MAT2A homodimer; in assay [1] (setting [2]); in assay [1] (setting [4]); with HCT116 MTAP-/- (setting [3]); in the assay on HCT116 MTAP-/- (setting [4]); with HCT116 MTAP+/+) was less than 0.1 µM throughout.
For `CCOc1ccc2c(n1)N(c1ccc(OC(F)F)cc1)C(=O)N(c1ccc3ncn(C)c3c1)C2` [Example 272], the IC50 on MAT2A homodimer is less than 0.1 µM; in assay [1] (setting [2]) it was less than 0.1 µM; in the assay on HCT116 MTAP-/- (setting [3]) it was 0.1 to 1 µM; in the assay on HCT116 MTAP+/+, more than 1 µM.
On to `Cn1cnc2ccc(N3Cc4ccc(OCC(F)(F)F)nc4N(c4ccc(OC(F)F)cc4)C3=O)cc21` [Example 273], for which the IC50 on MAT2A homodimer was less than 0.1 µM; in assay [1] (setting [2]) it was 0.1 to 1 µM; in the assay on HCT116 MTAP-/- (setting [3]), 0.1 to 1 µM; in the assay on HCT116 MTAP+/+, more than 1 µM.
As for `CCNc1ccc2c(n1)N(c1ccc(OC(F)F)cc1)C(=O)N(c1ccc3ncn(C)c3c1)C2` [Example 274], the IC50 was less than 0.1 µM on MAT2A homodimer; less than 0.1 µM in assay [1] (setting [2]); less than 0.1 µM in assay [1] (setting [4]); less than 0.1 µM with HCT116 MTAP-/- (setting [3]); less than 0.1 µM in the assay with HCT116 MTAP-/- (setting [4]); more than 1 µM in the assay with HCT116 MTAP+/+.
Take `CCOc1ccc2c(n1)N(c1ccc(OC(F)F)nc1)C(=O)N(c1ccc3nn(C)cc3c1)C2` [Example 275]: the IC50 on MAT2A homodimer is less than 0.1 µM; in assay [1] (setting [2]), 0.1 to 1 µM; with HCT116 MTAP-/- (setting [3]), 0.1 to 1 µM; in the assay with HCT116 MTAP+/+, 0.1 to 1 µM.
Regarding `CCOc1ccc2c(n1)N(c1ccc(CF)nc1)C(=O)N(c1ccc3nn(C)cc3c1)C2` [Example 282, 7-ethoxy-1-(6-(fluoromethyl)pyridin-3-yl)-3-(2-methyl-2H-indazol-5-yl)-3,4-dihydropyrido[2,3-d]pyrimidin-2(1H)-one], the IC50 at MAT2A homodimer was less than 0.1 µM; in assay [1] (setting [2]), less than 0.1 µM; in the assay with HCT116 MTAP-/- (setting [3]), less than 0.1 µM; with HCT116 MTAP+/+, more than 1 µM.
